Source: ChEMBL document CHEMBL5034034 (J Med Chem, 2021)
One block for each compound: values may come before it. Active and inactive are the calls of the source. The rule behind the calls is not given here.

Assays:
[1] = target: T1, Proprotein convertase subtilisin/kexin type 9 (Homo sapiens, UniProt Q8NBP7); test: Inhibition of human PCSK9 using Alexa Fluor […] as substrate incubated for 2 hrs by FRET assay
[2] = target: T1, Proprotein convertase subtilisin/kexin type 9; test: Inhibition of human PCSK9 using Alexa Fluor […] as substrate incubated for 2 hrs by FRET plus assay
[3] = target: T2, Solute carrier organic anion transporter family member 1B1 (Homo sapiens, UniProt Q9Y6L6); test: Inhibition of OATP1B1 (unknown origin) expressed in HEK293 cells assessed as reduction in OATP 1B1-mediated [3H]-pitavastatin uptake preincubated for 30 mins followed by [3H]-pitavastatin addition and measured after 2 mins by liquid scintillation analysis; format: cell-based
T2 sequence (Q9Y6L6 whole entry): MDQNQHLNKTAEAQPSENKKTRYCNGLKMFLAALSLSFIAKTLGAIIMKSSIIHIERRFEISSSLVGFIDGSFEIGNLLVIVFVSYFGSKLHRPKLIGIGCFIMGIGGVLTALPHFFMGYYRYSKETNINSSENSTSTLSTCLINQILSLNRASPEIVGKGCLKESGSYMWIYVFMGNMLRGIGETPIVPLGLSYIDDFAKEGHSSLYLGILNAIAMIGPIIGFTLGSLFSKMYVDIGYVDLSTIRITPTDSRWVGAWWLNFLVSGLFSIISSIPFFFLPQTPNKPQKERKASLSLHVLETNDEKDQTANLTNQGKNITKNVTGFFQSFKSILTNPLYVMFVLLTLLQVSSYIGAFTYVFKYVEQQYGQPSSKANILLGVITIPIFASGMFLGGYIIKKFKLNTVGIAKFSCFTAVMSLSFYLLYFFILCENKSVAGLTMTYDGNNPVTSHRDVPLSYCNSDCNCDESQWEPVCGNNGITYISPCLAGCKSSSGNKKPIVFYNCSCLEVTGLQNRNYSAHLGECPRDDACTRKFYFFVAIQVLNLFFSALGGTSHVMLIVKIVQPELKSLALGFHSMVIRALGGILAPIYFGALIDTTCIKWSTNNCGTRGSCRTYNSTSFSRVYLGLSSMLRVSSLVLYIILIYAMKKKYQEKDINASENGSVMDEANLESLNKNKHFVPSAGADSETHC

[4] = AUC extrapolated in Wistar Han rat at 5 mg/kg, id measured upto 24 hrs by LC-MS/MS analysis; format: ADME, organism-based; details: in vivo, other
[5] = Cmax in Wistar Han rat at 5 mg/kg, id measured upto 24 hrs by LC-MS/MS analysis; format: ADME, organism-based; design: dose 5 mg/kg, time <=24; details: in vivo
[6] = AUC(0 to infinity) in Wistar Han rat at 5 mg/kg, id measured upto 24 hrs by LC-MS/MS analysis; format: ADME, organism-based; design: dose 5 mg/kg, time <=24; details: in vivo
[7] = Reduction in unbound PCSK9 levels in cynomolgus monkey at 0.2 mg/kg, iv after 24 to 48 hrs; format: functional, Macaca fascicularis; design: scale not given: the % may be the effect or the level left; details: time 24-48 hrs
[8] = Reduction in LDL-cholesterol levels in cynomolgus monkey at 0.2 mg/kg, iv after 48 hrs; format: functional, Macaca fascicularis; design: scale not given: the % may be the effect or the level left
[9] = Stability of the compound assessed as bovine pancreatic trypsin-mediated parent compound depletion by measuring parent compound remaining after 1 hr by LC-MS/MS analysis; format: ADME, Bos taurus; details: cattle, read-out: Stability
[10] = Metabolic stability in cynomolgus monkey whole blood assessed as half life measured upto 6 hrs by LC-MS/MS analysis; format: ADME, tissue-based, Macaca fascicularis
[11] = target: T1, Proprotein convertase subtilisin/kexin type 9; test: Inhibition of human PCSK9 using Alexa Fluor […] as substrate incubated for 2 hrs by FRET ultra assay
[12] = Volume of distribution at steady state in cynomolgus monkey at 0.2 mg/kg, iv measured upto 72 hrs by LC-MS/MS analysis; format: ADME, organism-based, Macaca fascicularis; details: in vivo, read-out: Vdss
[13] = Tmax in Wistar Han rat at 5 mg/kg, id measured upto 24 hrs by LC-MS/MS analysis; format: ADME, organism-based; details: in vivo
[14] = AUC(0 to infinity) in cynomolgus monkey at 0.2 mg/kg, iv measured upto 72 hrs by LC-MS/MS analysis; format: ADME, organism-based, Macaca fascicularis; design: route intravenous, dose 0.2 mg/kg, time <=72; details: in vivo
[15] = Half life in cynomolgus monkey at 0.2 mg/kg, iv measured upto 72 hrs by LC-MS/MS analysis; format: ADME, organism-based, Macaca fascicularis; details: in vivo
[16] = Bioavailability in Wistar Han rat at 5 mg/kg, id measured upto 24 hrs by LC-MS/MS analysis; format: ADME, organism-based; details: in vivo
Sus scrofa [17] = species on record: Sus scrofa; test: Stability of the compound assessed as porcine pancreatic elastase-mediated parent compound depletion by measuring parent compound remaining after 1 hr by LC-MS/MS analysis
[18] = Clearance in cynomolgus monkey at 0.2 mg/kg, iv measured upto 72 hrs by LC-MS/MS analysis; format: ADME, organism-based, Macaca fascicularis; details: in vivo
[19] = Protein binding in cynomolgus monkey at 0.2 mg/kg, iv measured upto 72 hrs by LC-MS/MS analysis; format: ADME, organism-based, Macaca fascicularis; details: in vivo, read-out: PB (converted)
Macaca fascicularis = test: Reduction in LDL-cholesterol levels in cynomolgus monkey at 0.2 mg/kg, iv after 4 weeks; format: functional, organism-based
[20] = Unbound clearance in cynomolgus monkey at 0.2 mg/kg, iv measured upto 72 hrs by LC-MS/MS analysis; format: ADME, organism-based, Macaca fascicularis; details: in vivo
Mast cell = test: Induction of rat mast cells degranulation activity at 100 uM incubated for 30 mins; format: functional, tissue-based
Sus scrofa [21] = species on record: Sus scrofa; test: Stability of the compound assessed as porcine pepsin-mediated parent compound depletion by measuring parent compound remaining after 1 hr by LC-MS/MS analysis
Bos taurus = species on record: Bos taurus; test: Stability of the compound assessed as bovine pancreas alpha chymotrypsin-mediated parent compound depletion by measuring parent compound remaining after 1 hr by LC-MS/MS analysis

T1 sequence (Q8NBP7 31-152 limits assumed): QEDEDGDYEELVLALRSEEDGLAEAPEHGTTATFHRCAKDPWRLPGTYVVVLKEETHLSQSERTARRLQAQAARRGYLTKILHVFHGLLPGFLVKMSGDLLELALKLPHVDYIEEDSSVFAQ
T1 sequence (Q8NBP7 153-692 limits assumed): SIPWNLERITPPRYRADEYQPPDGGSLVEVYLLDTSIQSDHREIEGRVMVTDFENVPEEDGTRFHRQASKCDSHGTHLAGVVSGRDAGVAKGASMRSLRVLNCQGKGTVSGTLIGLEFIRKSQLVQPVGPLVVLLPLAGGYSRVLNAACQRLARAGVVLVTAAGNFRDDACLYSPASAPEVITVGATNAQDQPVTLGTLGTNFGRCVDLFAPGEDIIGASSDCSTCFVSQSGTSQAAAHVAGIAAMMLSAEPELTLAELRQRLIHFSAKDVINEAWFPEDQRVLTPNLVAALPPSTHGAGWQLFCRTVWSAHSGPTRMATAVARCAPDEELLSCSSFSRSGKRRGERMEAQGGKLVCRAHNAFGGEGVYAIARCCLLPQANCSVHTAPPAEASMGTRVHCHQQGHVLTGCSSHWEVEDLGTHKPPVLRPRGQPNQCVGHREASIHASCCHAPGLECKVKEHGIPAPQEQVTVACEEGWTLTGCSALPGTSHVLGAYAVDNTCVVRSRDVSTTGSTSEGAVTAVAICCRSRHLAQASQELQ

Structure (SMILES): COc1ccc(C[C@@H]2NC(=O)[C@H]([C@H](C)OC)NC(=O)[C@@H]3[C@@H]4CCN3C(=O)[C@H](Cc3c[nH]c5ccc(F)cc35)NC(=O)[C@H](Cc3cccc(c3)C/C=C\CO4)NC(=O)[C@H](C)NC(=O)[C@H](CN)NC(=O)CCSCc3cccc(c3)CSCCNC(=O)[C@]3(C)CCCN3C2=O)cc1
Ki [1]: 4.36 nM

Structure (SMILES): COc1ccc(C[C@@H]2NC(=O)[C@H]([C@@H](C)OC)NC(=O)[C@@H]3[C@@H]4CCN3C(=O)[C@H](Cc3c[nH]c5ccc(F)cc35)NC(=O)[C@H](Cc3cccc(c3)CCCCO4)NC(=O)[C@@H](C)NC(=O)[C@H](C)NC(=O)CCSCc3cccc(c3)CSCCNC(=O)[C@]3(C)CCCN3C2=O)cc1
Ki [1]: 2.17 nM

Structure (SMILES): COc1ccc(C[C@@H]2NC(=O)[C@H]([C@@H](C)O)NC(=O)[C@@H]3[C@@H]4CCN3C(=O)[C@H](Cc3c[nH]c5ccc(F)cc35)NC(=O)[C@H](Cc3cccc(c3)C/C=C\CO4)NC(=O)[C@@H](C)NC(=O)[C@H](C)NC(=O)CCSCc3cccc(c3)CSCCNC(=O)[C@]3(C)CCCN3C2=O)cc1
Ki [1]: 4.66 nM

Structure (SMILES): COc1ccc(C[C@@H]2NC(=O)[C@H]([C@@H](C)OC)NC(=O)[C@@H]3[C@@H]4CCN3C(=O)[C@H](Cc3c[nH]c5ccc(F)cc35)NC(=O)[C@H](Cc3cccc(c3)C/C=C\CO4)NC(=O)[C@@H](CN)NC(=O)[C@H](C)NC(=O)CCSCc3cccc(c3)CSCCNC(=O)[C@]3(C)CCCN3C2=O)cc1
Ki [2]: 2.25 nM
Ki [1]: 1.16 nM

Second part, led by results:

Ki [1]: 4.83 nM
Structure (SMILES): COc1ccc(C[C@@H]2NC(=O)[C@H]([C@@H](C)OC)NC(=O)[C@@H]3[C@@H]4CCN3C(=O)[C@H](Cc3c[nH]c5ccc(F)cc35)NC(=O)[C@H](Cc3cccc(c3)C/C=C\CO4)NC(=O)[C@@H](C)NC(=O)[C@H](C)NC(=O)CCSCc3cccc(c3)CSCCNC(=O)[C@]3(C)CCCN3C2=O)cc1

Ki [2]: 0.25 nM
Ki [1]: 0.43 nM
Structure (SMILES): COc1ccc(C[C@@H]2NC(=O)[C@H]([C@@H](C)O)NC(=O)[C@@H]3[C@@H]4CCN3C(=O)[C@H](Cc3c[nH]c5ccc(F)cc35)NC(=O)[C@H](Cc3cccc(c3)C/C=C/CO4)NC(=O)[C@@H](C)NC(=O)[C@H](C)NC(=O)CCSCc3cccc(c3)CSCCNC(=O)[C@]3(C)CCCN3C2=O)cc1

EC50 [3]: 2500 nM
Ki [2]: 0.00736 nM
%AUCextra [4]: 3%
Cmax [5]: 178 nM
AUC(0-inf) [6]: 0.497 µM·h
remaining at 1 h [9]: 100%
half-life [10]: > 6 h
Ki [1]: < 0.129 nM
Ki [11]: 0.00093 nM
Vd [12]: 1.2 L/kg
Tmax [13]: 0.3 h
AUC(0-inf) [14]: 0.762 µM·h
half-life [15]: 10.1 h
bioavailability [16]: 1.4%
Stability (Sus scrofa [17]): 92.6%
clearance [18]: 2.7 mL/min/kg
fraction unbound at 72 h [19]: 0.256
CL free [20]: 10.6 mL/min/kg
Stability (Sus scrofa [21]): 99%
Stability (Bos taurus): 95.3%
Structure (SMILES): COc1ccc(C[C@@H]2NC(=O)[C@H]([C@@H](C)O)NC(=O)[C@@H]3[C@@H]4CCN3C(=O)[C@@H]3Cc5cn(c6ccc(F)cc56)Cc5cn(nn5)-c5cc(cc(c5)CSCCC(=O)N[C@@H](C)C(=O)N[C@H](CNC(=O)CCOCCOCC[N+](C)(C)C)C(=O)N[C@@H](Cc5cccc(c5)C/C=C/CO4)C(=O)N3)CSCCNC(=O)[C@]3(C)CCCN3C2=O)cc1
Activity [7]: >80%
Activity [8]: >50%
Activity (Macaca fascicularis): inactive
Activity (Mast cell): inactive
